Where two headings read alike, the source gives them in different places. Each block holds one compound with its values, some of them ahead of it.
Columns and labels:
[1] = tested on: fixed activated platelets; experiment: Platelet Aggregation Assay (fixed-activated platelets, fibrinogen-mediated aggregation); format: cell-based; details: aggregation initiated by human fibrinogen 250 μg/ml, read-out: Inhibition of Fixed Platelet Aggregation (IC50 μM)
Procedure: Preparation of Fixed-Activated Platelets
Platelets are isolated from human platelet concentrates using the gel-filtration technique as described by Marguerie, G. A., et al., J. Biol. Chem. 254, 5357-5363 (1979) and Ruggeri, Z. M., et al., J. Clin. Invest. 72, 1-12 (1983). The platelets are suspended at a concentration of 2×10^8 cells/ml in a modified calcium-free Tyrode's buffer containing 127 mM sodium chloride, 2 mM magnesium chloride, 0.42 mM Na2HPO4, 11.9 mM NaHCO3, 2.9 mM KCl, 5.5 mM glucose, 10 mM HEPES, at a pH of 7.35 and 0.35% human serum albumin (HSA). These washed platelets are activated by addition of human a-thrombin at a final concentration of 2 units/ml, followed by thrombin inhibitor I-2581 at a final concentration of 40 μM. To the activated platelets is added paraformaldehyde to a final concentration of 0.50% and this incubated at room temperature for 30 minutes. The fixed activated platelets are then collected by centrifugation at 650×g for 15 minutes. The platelet pellets are washed four times with the above Tyrode's-0.35% HSA buffer and resuspended to 2×10^8 cells/ml in the same buffer.
Platelet Aggregation Assay
The fixed activated platelets are incubated with a selected dose of the compound to be tested for platelet aggregation inhibition for one minute and aggregation initiated by addition of human fibrinogen to a final concentration of 250 μg/ml. A platelet aggregation profiler Model PAP-4 is used to record the platelet aggregation. The extent of inhibition of aggregation is expressed as the percentage of the rate of aggregation observed in the absence of inhibitor.

[2] = tested on: ADP-induced platelet aggregation in canine platelet rich plasma; experiment: Inhibition of ADP-Induced ex-vivo Platelet Aggregation after oral administration; format: in vivo, mongrel dogs; details: Canis lupus familiaris, Platelet, dog
Procedure: Inhibition of ADP-Induced ex-vivo Platelet Aggregation
Control blood samples are obtained 5-10 minutes prior to administration of the test compound in mongrel dogs weighing from 10 to 20 kg. The compound is administered intragasticly, via aqueous gavage, or orally, via gelatin capsule. Blood samples (5 ml) are then obtained at 30 minute intervals for 3 hours, and at 6, 12, and 24 hours after dosing. Each blood sample is obtained by venipuncture of the cephalic vein and is collected directly into a plastic syringe containing one part 3.8% trisodium citrate to nine parts blood.
Ex vivo Canine Platelet Aggregation
The blood samples are centrifuged at 1000 rpm for 10 minutes to obtain platelet rich plasma (PRP). After removal of the PRP, the sample is centrifuged for an additional 10 minutes at 2000 rpm to obtain platelet poor plasma (PPP). Platelet count in the PRP is determined by using a Coulter Counter (Coulter Electronics, Hialeah, Fla.). If the concentration of platelets in the PRP is greater than 300,000 platelets/μl, then the PRP is diluted with PPP to adjust the platelet count to 300,000 platelets/μl. Aliquots of PRP (250 μl) are then placed in siliconized glass cuvettes (7.25×55 mm, Bio/Data Corp, Horsham, Pa.). Epinephrine (final concentration of 1 μM) is then added to the PRP, which is incubated for one minute at 37° C. A stimulator of platelet aggregation, ADP at a final concentration of 10 μM, is then added to the PRP. Platelet aggregation is monitored spectrophotometrically utilizing a light transmission aggregometer (Bio/Data Platelet Aggregation Profiler, Model PAP-4, Bio/Data Corp, Horsham, Pa.). For compound to be tested, the rate of change (slope) of light transmittance and the maximum light transmittance (maximum aggregation) is recorded in duplicate. Platelet aggregation data are reported as the percent decrease (mean±SEM) in slope or maximum aggregation as compared to data obtained from control PRP, which is prepared from blood samples obtained prior to administration of the test compound.

[3] = 1 h after dosing, read-out: % Inhibition of ex-vivo Platelet Aggregation After Oral Administration, 1 h
[4] = 3 h after dosing, read-out: % Inhibition of ex-vivo Platelet Aggregation After Oral Administration, 3 h
[5] = 6 h after dosing, read-out: % Inhibition of ex-vivo Platelet Aggregation After Oral Administration, 6 h
[6] = 12 h after dosing, read-out: % Inhibition of ex-vivo Platelet Aggregation After Oral Administration, 12 h
[7] = 24 h after dosing, read-out: % Inhibition of ex-vivo Platelet Aggregation After Oral Administration, 24 h

SMILES: CCN(CC(=O)NC(CC(=O)O)C(=O)NC(C(=O)O)C(C)C)C(=O)CCCC1CCNCC1 (centres unmarked) [Example 4]
IC50 ([1]; Homo sapiens, Platelet): 0.72 µM | inhibition at 10 mg/kg [2, 3]: 90% | inhibition at 10 mg/kg [2, 4]: 50% | inhibition at 10 mg/kg [2, 5]: < 20%

SMILES: CCCCC(NC(=O)C(CC(=O)O)NC(=O)CN(CC)C(=O)CCCC1CCNCC1)C(=O)O (centres unmarked) [Example 6]
IC50 ([1]; Homo sapiens, Platelet): 0.13 µM | inhibition at 10 mg/kg [2, 3]: 80% | inhibition at 10 mg/kg [2, 4]: 20%

SMILES: CCN(CC(=O)NC(CC(=O)O)C(=O)NC(Cc1cccc2ccccc12)C(=O)O)C(=O)CCCC1CCNCC1 [Example 7, N-[N-[N-(4-(piperidin-4-yl)butanoyl)-N-ethylglycyl]aspartyl]-L-b-naphth-1-yl alanine]
IC50 ([1]; Homo sapiens, Platelet): 0.11 µM | inhibition at 5 mg/kg [2, 3]: 30% | inhibition at 5 mg/kg [2, 4]: < 20%

SMILES: CCN(CC(=O)NC(CC(=O)O)C(=O)NC(CC1CCCCC1)C(N)=O)C(=O)CCCC1CCNCC1 [Example 12, N-[N-[N-(4-(piperidin-4-yl)butanoyl)-N-ethylglycyl]aspartyl]-L-b-cyclohexyl alanine amide]
IC50 ([1]; Homo sapiens, Platelet): 0.097 µM | inhibition at 5 mg/kg [2, 3]: 100% | inhibition at 5 mg/kg [2, 4]: 100% | inhibition at 5 mg/kg [2, 5]: 100% | inhibition at 5 mg/kg [2, 6]: 98% | inhibition at 5 mg/kg [2, 7]: 50%

SMILES: CCN(CC(=O)NC(CC(=O)O)C(=O)NC(CC1CCCC2CCCCC21)C(=O)O)C(=O)CCCC1CCNCC1 [Example 14, N-[N-[N-(4-(piperidin-4-yl)butanoyl)-N-ethylglycyl]aspartyl]-L-b-decahydronaphth-1-yl alanine]
IC50 ([1]; fixed activated human platelets): 0.019 µM | inhibition at 5 mg/kg [2, 3]: 100% | inhibition at 5 mg/kg [2, 4]: 100% | inhibition at 5 mg/kg [2, 5]: 100% | inhibition at 5 mg/kg [2, 6]: 100% | inhibition at 5 mg/kg [2, 7]: 95%

More lines, in order of falling IC50 ([1]; Homo sapiens, Platelet), values ahead:

IC50 ([1]; Homo sapiens, Platelet): 0.082 µM
SMILES: CCN(CC(=O)NC(CC(=O)O)C(=O)NC(CC(C)(C)C)C(=O)O)C(=O)CCCC1CCNCC1 (centres unmarked) [Example 5]
inhibition at 10 mg/kg [2, 3]: 100% | inhibition at 10 mg/kg [2, 4]: 90% | inhibition at 10 mg/kg [2, 5]: 35%

IC50 ([1]; Homo sapiens, Platelet): 0.072 µM
SMILES: CCN(CC(=O)N[C@@H](CC(=O)O)C(=O)NCCC1CCCCC1)C(=O)CCCC1CCNCC1 [Example 15, 2-cyclohexyl-N-[N-[N-(4-(piperidin-4-yl)butanoyl)-N-ethylglycyl]aspartyl]-ethylamine]
inhibition at 5 mg/kg [2, 3]: 35% | inhibition at 5 mg/kg [2, 4]: 18%

IC50 ([1]; Homo sapiens, Platelet): 0.064 µM
SMILES: CCN(CC(=O)NC(CC(=O)O)C(=O)NC(Cc1ccccc1)C(=O)O)C(=O)CCCC1CCNCC1 (centres unmarked) [Example 3, N-[N-[N-(4-piperidin-4-yl)-N-ethylglycyl]aspartyl]phenylalanine]
inhibition at 10 mg/kg [2, 3]: 40% | inhibition at 10 mg/kg [2, 4]: < 20%

IC50 ([1]; Homo sapiens, Platelet): 0.064 µM
SMILES: CCOC(=O)C(CC1CCCCC1)NC(=O)C(CC(=O)O)NC(=O)CN(CC)C(=O)CCCC1CCNCC1 [Example 11, N-[N-[N-(4-(piperidin-4-yl)butanoyl)-N-ethylglycyl]aspartyl]-L-b-cyclohexyl alanine, ethyl ester]
inhibition at 5 mg/kg [2, 3]: 100% | inhibition at 5 mg/kg [2, 4]: 100% | inhibition at 5 mg/kg [2, 5]: 60% | inhibition at 5 mg/kg [2, 6]: 37%

IC50 ([1]; Homo sapiens, Platelet): 0.027 µM
SMILES: CCN(CC(=O)N[C@@H](CC(=O)O)C(=O)N[C@H](C(=O)O)C(C)C)C(=O)CCCC1CCNCC1 [Example 2, N-[N-[N-(4-(piperidin-4-yl)butanoyl)-N-ethylglycyl]aspartyl]valine]
inhibition at 10 mg/kg [2, 3]: 90% | inhibition at 10 mg/kg [2, 4]: 60% | inhibition at 10 mg/kg [2, 5]: < 20%

From patent publication US6797700B2, “Antithrombotic azacycloalkylalkanoyl peptides and pseudopeptides” (Aventis Pharmaceuticals, Inc., priority 1993, dated 2004)
